According to ChEMBL document CHEMBL1132826, “6-Hydroxy-1,3-dioxin-4-ones as non-peptidic HIV protease inhibitors” (Bioorg Med Chem Lett, 2000):
Each block holds one compound with its values, some of them ahead of it.

Experiments:
[1] = molecular target: Human immunodeficiency virus type 1 protease (Human immunodeficiency virus 1, UniProt Q72874); experiment: Compound was evaluated for the inhibitory activity towards HIV protease
[2] = test system: MT4; experiment: Compound was evaluated for the antiviral activity in HIV-I IIIB infected MT-4 cells assay; format: functional, cell-based; conditions: Homo sapiens
[3] = Ratio of compound cytotoxic concentration (CC50) to that of antiviral activity (EC50); format: functional
[4] = test system: MT4; experiment: Cytotoxic concentration was measured in HIV-I IIIB infected MT-4 cells assay; format: functional; conditions: Homo sapiens

IC50 [1]: 0.01 µM
Structure (SMILES): CCCC1(CCc2ccccc2)OC(=O)C(C(CC)c2cccc(NS(=O)(=O)c3ccc(C(F)(F)F)cn3)c2)=C(O)O1 (stereo not given)
EC50 [2]: 0.96 µM | SI [3]: 65.69 | CC50 [4]: 63 µM

IC50 [1]: 0.05 µM
Structure (SMILES): CCC[C@]1(CCc2ccccc2)OC(=O)C([C@H](CC)c2cccc(NS(=O)(=O)c3ccc(C(F)(F)F)cn3)c2)=C(O)O1 (racemic)

Continued, compound first:

Structure (SMILES): CCCC1(CCc2ccccc2)OC(=O)C(C(CC)c2cccc(NS(=O)(=O)c3ccc(N)cn3)c2)=C(O)O1 (stereo not given)
IC50 [1]: 0.013 µM | EC50 [2]: > 70 µM | SI [3]: <1 | CC50 [4]: 70 µM

Structure (SMILES): CCCC1(CCc2ccccc2)OC(=O)C(C(CC)c2cccc(NS(=O)(=O)c3ccc(C#N)cn3)c2)=C(O)O1 (stereo not given)
IC50 [1]: 0.003 µM | EC50 [2]: 11.4 µM | SI [3]: 6.77 | CC50 [4]: 77 µM

Structure (SMILES): CCCC1(CCc2ccccc2)OC(=O)C(C(CC)c2cccc(NS(=O)(=O)c3ccc([N+](=O)[O-])cn3)c2)=C(O)O1 (stereo not given)
IC50 [1]: 0.065 µM | EC50 [2]: > 14.8 µM | SI [3]: <1 | CC50 [4]: 14.8 µM

Structure (SMILES): CCCC1(CCc2ccccc2)OC(=O)C(C(CC)c2cccc(NS(=O)(=O)c3ccc(C#N)cc3)c2)=C(O)O1 (stereo not given)
IC50 [1]: 0.015 µM | EC50 [2]: > 66.5 µM | SI [3]: <1 | CC50 [4]: 66.5 µM

Structure (SMILES): CCCC1(CCc2ccccc2)OC(=O)C(C(CC)c2cccc(NS(=O)(=O)c3ccccn3)c2)=C(O)O1 (stereo not given)
IC50 [1]: 0.013 µM | EC50 [2]: 86.7 µM | SI [3]: >2.05 | CC50 [4]: > 178 µM
